Results taken from US11116774B2, “Modulators of toll-like receptors for the treatment of HIV” (Gilead Sciences, Inc., priority 2014, dated 2021).

Key:
[1] = test system: peripheral CD8 lymphocytes (CD3+CD8+CD4−); test: Peripheral lymphocyte activation, CD69 by flow cytometry: CD8 lymphocytes (Example 206); type: in vivo, rhesus macaque
Text: During the course of treatment with the compound of Example 4 as described in Example 204, peripheral lymphocyte activation was monitored in the groups dosed with the compound of Example 4 or the dosing vehicle of Example 201 (placebo), by measuring the expression of the early activation marker CD69 on various lymphocyte subsets by flow cytometry methodology. This methodology was used to quantify the percentage of immune cell subsets expressing the early activation marker. Standard data acquisition techniques were employed on a flow cytometer and by the use of antibodies conjugated to fluorescent molecules where the antibodies recognize rhesus macaque cell surface proteins on various immune cell subsets. In animals dosed with the compound of Example 4, whole blood samples were collected for each dose at various time points both at pre- and post-administration of compound. Total PBMCs were stained in the whole blood samples using antibodies that were chosen to be reactive to rhesus CD3, CD4, CD8, NKG2A, CD16 and CD56, each conjugated to different fluorescent probes to delineate CD3+CD4+CD8− lymphocytes, CD3+CD4−CD8+ lymphocytes and CD3-CD8+ NKG2A+CD16+ CD56+ NK cells. The flow cytometry data presented herein are from animals treated with the compound of Example 4.

[2] = test system: simian immunodeficiency virus (SIV); test: TLR7 modulating compound in SIV+ viremic rhesus at chronic set point: plasma viral load by quantitative RT-PCR (Example 203); type: in vivo, rhesus macaques
Experimental: Five chronically infected, SIV^+ rhesus macaques were either treated with the compound of Example 4 (n=3 animals) or with dosing vehicle (placebo, n=2 animals) in a multiple-dose, dose escalation, placebo controlled study. […] The animals were not administered combination antiretroviral therapy during any part of the study.
The animals were dosed once weekly by oral gavage (via nasogastric tube) with either the compound of Example 4 or placebo. Three animals were administered the compound of Example 4, prepared as described in Example 201. The first week, 1 mL/kg of the 0.1 mg/mL formulation was administered, corresponding to a dose of 0.1 mg/kg. The second week, 1 mL/kg of the 0.2 mg/mL formulation was administered, corresponding to a dose of 0.2 mg/kg. On weeks three through five, 1 mL/kg of the 0.3 mg/mL formulation was administered, corresponding to a dose of 0.3 mg/kg. Each week, two animals (placebo group) were administered the dosing vehicle as described in Example 201 at 1 mL/kg.
Each formulation of Example 201 or dosing vehicle only (placebo) was used fresh and thawed to room temperature prior to dosing. Plasma viral loads (expressed as SIV RNA copies per mL of plasma) were determined by quantitative RT-PCR of the SIV RNA measuring the gag gene transcripts at various times throughout the study for animals administered the compound of Example 4 and the placebo animals. […]

[3] = test system: polyfunctional proliferating CD8 T cells (CFSE low, IFNg+, TNFa+); test: Induction of HIV-specific polyfunctional CD8 T cells by combination with an IDO1 inhibitor (Example 217); type: cell-based, human; settings: 0.1 uM; PBMCs from 4 HIV-infected donors; 8 days
Experimental: PBMCs from 4 HIV-infected donors (Donor IDs 180-183) on suppressive cART were isolated, as described previously, stained with CFSE, and treated with 500 ng/ml 15-mer peptide pools derived from overlapping HIV gag, pol, nef, and env consensus peptides (JPT Peptide Technologies GmbH). PBMC cultures were treated with DMSO or the compound of Example 49 (GS-9620) at 0.1 uM. In some cultures treated with Example 49, the IDO1 small molecule inhibitor, INCB024360, was combined at 2 μM. Cells were incubated at 37° C. for 8 days, then split into duplicate sets and stained in DPBS with LIVE/DEAD Fixable Aqua Dead Cell Stain (Life Technologies). The immune recall response was performed as previously described. FACS was performed on a LSR Fortessa (BD Biosciences) and data analysis was done with FlowJo software (TreeStar). Data was plotted and statistical analysis was done with GraphPad Prism software (GraphPad).

[4] = test system: polyfunctional proliferating CD8 T cells (CFSE low, IFNg+, TNFa+); test: Induction of HIV-specific polyfunctional CD8 T cells ex vivo (Example 216); type: cell-based, human; settings: PBMCs from 5 HIV-infected donors, HIV peptide pools
Experimental: PBMCs from 5 HIV-infected donors (Donor IDs 178-180 and 182-183) on suppressive cART were isolated, as described previously, and stained with carboxyfluorescein succinimiyl ester (CFSE). PBMC cultures were treated with DMSO or the compound of Example 49 (GS-9620) at 0.1 or 1 uM. Cultures were incubated at 37° C. for 2 days and treated with 500 ng/ml 15-mer peptide pools derived from overlapping HIV gag, pol, nef, and env consensus peptides (JPT Peptide Technologies GmbH). Cells were incubated at 37° C. for 8 days. Cultures were split into duplicate sets and stained in dulbecco's phosphate buffered saline (DPBS) with LIVE/DEAD Fixable Aqua Dead Cell Stain (Life Technologies). The immune recall response was performed as follows. One culture set was treated with the same HIV peptide pools and the other set was treated with 500 ng/ml CMV/EBV/Flu/Tetanus (CEFT) peptides (JPT Peptide Technologies GmbH). After one hour at 37° C., cultures were treated with 0.7 μl GolgiStop (BD Biosciences) containing monensin and 1 μl GolgiPlug (BD Biosciences) containing brefeldin A. Cultures were incubated for 3 additional hours at 37° C. and stained for 15 minutes with anti-CD4-v450, anti-CD3-AlexaFlour 700, and anti CD8-APC-H7 (BD Biosciences). Cultures were fixed with IC Fixation Buffer (eBioscience) and permeabilized with Permeabilization Buffer (eBioscience). […]

CCCCOc1nc(N)c2c(n1)N(Cc1ccc(CN3CCCC3)cc1)CC(=O)N2 [Example 4]
mean maximum percent change in CD69 expression on CD8 lymphocytes ([1]; all subsequent 0.3 mg/kg doses): 15.5%
mean maximum percent change in CD69 expression on CD8 lymphocytes ([1]; dose 0.1 mg/kg, any time point (rise 24 to 72 hours post-dose), pre-dose range 3.3-12.6%): 7.8%
mean maximum percent change in CD69 expression on CD8 lymphocytes ([1]; dose 0.2 mg/kg, pre-dose range 3.0-15.7%): 9.5%
mean maximum percent change in CD69 expression on CD8 lymphocytes ([1]; first dose of 0.3 mg/kg, pre-dose range 5.0-14.4%): 17.3%
plasma viral load ([2]; animal with the lowest chronic set point, undetectable for at least 100 days following the last dose (FIG. 1)): < 50 RNA copies/mL
sustained decrease in viral load set point compared to pre-dose ([2]; second animal, log10 RNA copies, maintained at least 100 days following the last dose (FIG. 2)): approximately 1 log order

CCCCOc1nc(N)c2c(n1)N(Cc1cccc(CN3CCCC3)c1)CC(=O)N2 [Example 49]
increase of mean level of polyfunctional proliferating CD8 T cells compared to DMSO [3]: 2.9 fold
increase of mean level of polyfunctional proliferating CD8 T cells compared to DMSO ([4]; 0.1 uM, p<0.05): 9.0 fold
increase of mean level of polyfunctional proliferating CD8 T cells compared to DMSO ([4]; 1 uM, p<0.005): 7.5 fold
